# Data taken from patent publication US20180305524A1, “Inulin Nanofibers” (The American University in Cairo, priority 2014, published 2018).
# Key:
# [1] = test system: gut bifidobacteria; details: IBS patients; cited from earlier work
# [2] = test system: bifidobacteria and lactobacillus; details: in vitro; cited from earlier work
# [3] = test system: E. coli; assay: Antibacterial activity, cork-borer method, inhibition zone with E. coli; assay type: cell-based
# Method: (§1) Polyvinyl Alcohol (PVA)/Inulin nanofibers are manufactured using electrospinning technique and tested for their prebiotic activity with Lactobacillus sp. and antibacterial activity with E. coli and S. aureus. After characterization and cross-linking of the produced PVA/Inulin Electrospun composite nanofibers (CNF), they were tested for their prebiotic activity with Lactobacillus sp. by viable count, optical density, pH and growth curve, and antibacterial activity with E. coli and S. aureus, by the cork-borer method, measuring the inhibition zone and the inhibition curve.
# (§2) FIGS. 4A-B show according to an exemplary embodiment of the invention in FIG. 4A an inhibition zone of PVA electrospun Nanofibers, inulin solution, PVA/Inulin electrospun CNFs, antibiotic and water with E. coli, in FIG. 4B an inhibition zone of PVA electrospun Nanofibers, inulin solution, PVA/Inulin electrospun CNFs, antibiotic and water with S. aureus.
# [4] = test system: S. aureus; assay: Antibacterial activity, cork-borer method, inhibition zone with S. aureus; assay type: cell-based
# Method: as §1, §2
# [5] = test system: Lactobacillus sp.; assay: Prebiotic activity with Lactobacillus sp. culture (total viable count, pH, optical density after 24 hours incubation); assay type: cell-based
# Method: as §1
# FIGS. 2A-C show according to an exemplary embodiment of the invention in FIG. 2A Total viable count, FIG. 2B pH, and FIG. 2C Optical density of Lactobacillus sp. culture containing PVA electrospun Nanofibers, inulin solution, PVA/Inulin electrospun CNFs, and water after 24 hours of incubation.
# Prebiotic activity was carried out using Lactobacillus sp. to assess the growth activity by calculating the i) total viable counts, ii) pH, iii) optical density (OD), and iv) growth curve.
# The pH and the OD of the culture inoculated with the tested material were measured before incubation and after 24 hours incubation. PVA/Inulin electrospun CNFs solution decreased the pH to 5.7 compared to 6.3 for the control.
# [6] = test system: Bifidobacterium bifidum culture; details: inulin extracted from artichoke; cited from earlier work
Substance,effectiveness as a prebiotic [1],prebiotic effectiveness [2],inhibition zone [3],inhibition zone [4],"pH of the culture ([5]; after 24 hours incubation, control 6.3)",lactobacillus growth (total viable count) ([5]; after 24 hours of incubation),growth of B. bifidum [6]
galactooligosaccharides,effective as a prebiotic,,,,,,
oligofructose [oligofructose (OF)],,clear prebiotic effectiveness,,,,,
inulin [inulin solution],,clear prebiotic effectiveness,didn't show any visible zone of inhibition,didn't show any visible zone of inhibition,6.2,2.9×10^3 cfu/mL,increased the growth
